According to patent US20240400606A1, “SMALL MOLECULE ACTIVATORS OF THE IMMUNE SYSTEM” (THE BOARD OF TRUSTEES OF THE UNIVERSITY OF ILLINOIS, priority 2021, published 2024):

Experiments:
SULT2B1b = SULT2B1b (Homo sapiens (Human), UniProt O00204); assay: Coupled chromogenic SULT2B1b inhibition assay; assay type: biochemical; conditions: for IC50: coupled chromogenic in vitro assay, optimized conditions, mean±s.e.m., n=3
Experimental: Optimized Coupled Chromogenic SULT2B1b Activity Assay. For 96-well Format: Working concentrations of IMPAD1 (0.1 mg/mL in 1× activity assay buffer), PAPS (1 mM in 1× activity assay buffer), and DHEA (2.5 mM in DMSO) were prepared. Two technical replicates were assayed for each sample. Reaction mixes were prepared by mixing 10 μL PAPS stock solution, 10 μL IMPAD1 stock solution, 4 μL 2.5 mM DHEA or DMSO, and 16 μL activity assay buffer to make […] reaction mix. Amount of reaction mix was scaled accordingly to number of samples assayed. 25 μL of reaction mix was dispensed to each well. SULT2B1b was diluted to 1.5 μg/μL in protein storage buffer then down to 0.8 μg/μL in 1X activity assay buffer. 25 μL of 0.8 μg/μL SULT2B1b was added to each well. The reaction was incubated at 37° C. for 45 minutes, then quenched by addition of 30 μL of malachite green solution A, followed by addition of 30 μL of malachite green solution B. The plate was left at room temperature for 20 minutes for color stabilization, then absorbance was read at 620 nm. IMPAD1 activity control was 10 μL of 0.1 mg/mL IMPAD1 mixed with 40 μL activity assay buffer. 25 μL of the IMPAD1 dilution was added to 25 μL of 0.1 mM PAP.
Coupled Chromogenic SULT2B1b Inhibition Assay. For 96-well Format: Working stock solutions of IMPAD1 (0.1 mg/mL in 1× activity assay buffer), PAPS (1 mM in 1X activity assay buffer), compound of interest (5 mM in DMSO) and DHEA (5 mM in DMSO) were prepared. Two technical replicates were assayed for each sample. […] The reaction was incubated at 37° C. for 45 minutes, then quenched by addition of 30 μL of malachite green solution A, followed by addition of 30 μL of malachite green solution B. The plate was left at room temperature for 20 minutes for color stabilization, then absorbance was read at 620 nm. […]
Percent inhibition was calculated as: 100−[100×[(Phosphate produced per wellaverage,compound of interest−Phosphate produced per wellaverage, DMSO)/(Phosphate produced per wellaverage, DHEA−Phosphate produced per wellaverage, DMSO)]]. […]

MCF-7 cells = assay: Alamar blue cellular cytotoxicity, MCF-7; assay type: cell-based; conditions: MCF-7, 72 hours
Experimental: (§1) Alamar Blue Fluorescence for Cellular Activity (IC50). Cells were seeded per well in a 96-well plate (5000 for MCF-7, 4000 for T47D, 7000 for mouse embryonic fibroblasts) and allowed to adhere before DMSO solutions of compounds were added to each well. Final concentration of DMSO in each well is 1%, final volume: 100 μL. At the end of 72 hours, Alamar Blue solution was added (10 μL of 1 mg resazurin per 10 mL PBS). After 2-4 hours incubation, fluorescence (λexcit.=555 nm, λemission.=585 nm) was measured. The fluorescence of each well was read with a SpectraMax M3 plate reader (Molecular Devices). Percent dead was determined by comparison to a 100% dead control: 100 μM Raptinal treated cells.
Whole cell cytotoxicity-MCF-7. Cell cytotoxicity was assessed to ensure compound concentrations used the whole cell assays would not kill the cells. Alamar blue cell cytotoxicity assay: 5000 cells were seeded per well in a 96-well plate and allowed to adhere before DMSO solutions of compounds were added to each well. Final concentration of DMSO in each well is 1%, with a final volume of 100 μl. […] After 2 to 4 hours of incubation, fluorescence (λexcitation=555 nm, λemission=585 nm) was measured. Percent dead was determined by comparison to a 100% dead control: 100 μM Raptinal-treated cells (FIG. 6).

T47D cells = assay: Alamar blue cellular cytotoxicity, T47D; assay type: cell-based; conditions: 72 hours
Experimental: as §1

[1] = tested on: STS and SULT2B1b levels in MCF-7; assay: Western blot of STS and SULT2B1b after treatment, MCF-7; assay type: cell-based, human; conditions: MCF-7, 6.25 μM, 72 hours
Experimental: Western Blot Analysis. Cells were lysed using RIPA buffer containing phosphatase (BioVision) and protease inhibitor cocktail (Calbiochem). Protein concentrations were determined using the BCA assay (Pierce). Lysates containing 15 μg of protein were loaded onto 4-20% gradient gels (BioRad), and SDS-PAGE was run. Proteins were then transferred onto membrane (PVDF Millipore) for Western Blot analysis. Blots were blocked with BSA solution (2 g in 40 mL TBST) for one hour followed by primary antibody addition and incubation overnight (using manufacturer's recommended dilutions). Following overnight incubation, blots were washed with TBST, and incubated with HRP-linked secondary antibody for 1 hour in TBST. Blots were washed, then imaged with ChemiDoc after incubation with SuperSignal West Pico Solution following manufacturer's procedures.

Chain of SULT2B1b (O00204 whole entry): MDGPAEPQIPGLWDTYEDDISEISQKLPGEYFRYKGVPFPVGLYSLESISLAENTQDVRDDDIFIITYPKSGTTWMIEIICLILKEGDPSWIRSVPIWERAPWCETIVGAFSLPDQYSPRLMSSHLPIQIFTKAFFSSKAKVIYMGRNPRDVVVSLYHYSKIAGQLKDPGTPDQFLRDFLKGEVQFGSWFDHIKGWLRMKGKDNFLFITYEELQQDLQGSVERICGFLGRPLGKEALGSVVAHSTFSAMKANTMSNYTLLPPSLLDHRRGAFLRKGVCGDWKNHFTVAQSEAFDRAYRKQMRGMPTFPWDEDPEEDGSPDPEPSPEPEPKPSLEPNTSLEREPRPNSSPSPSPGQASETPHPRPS

Structure (SMILES)	IC50 (SULT2B1b) [µM]	percent inhibition (SULT2B1b; initial medium throughput screen) [%]	suitable sub-lethal treatment concentration (MCF-7 cells) [µM]	suitable sub-lethal treatment concentration (T47D cells) [µM]	STS and SULT2B1b levels after treatment [1]
C[C@]12CCC(=O)N(Cc3ccc(Cl)cc3)C1=CC[C@@H]1[C@@H]2C(=O)C[C@]2(C)C(=O)CC[C@@H]12 [Compound 1, (4aR,4bS,6aS,9aS,9bS)-1-(4-chlorobenzyl)-4a,6a-dimethyl-3,4,4a,6,6a,8,9,9a,9b,10-decahydro-1H-indeno[5,4-f]quinoline-2,5,7(4bH)-trione]	34 ± 4	48	6.25	6.25	
C[C@]12CC[C@H](O)CC1=CC[C@@H]1[C@@H]2CC[C@]2(C)C(n3cnc4ccccc43)=CC[C@@H]12 [Compound 2, Galeterone, reference compound]	41 ± 7				
C[C@]12CCC(=O)N(Cc3ccc(Br)cc3)C1=CC[C@@H]1[C@@H]2C(=O)C[C@]2(C)C(=O)CC[C@@H]12 [Compound 3, (4aR,4bS,6aS,9aS,9bS)-1-(4-bromobenzyl)-4a,6a-dimethyl-3,4,4a,6,6a,8,9,9a,9b,10-decahydro-1H-indeno[5,4-f]quinoline-2,5,7(4bH)-trione]			6.25	6.25	unchanged
